How the values were obtained:
Assay type in all cases: in vitro ADME
[1] = Hepatocytes stability assay (human hepatocytes); settings: both sexes, human, cryopreserved hepatocytes, cryopreserved human hepatocytes (pool of 50 mixed gender); 1 μM test compound; 1×10^6 cell/mL; 37 degrees C; read-out: CLint (μL/min/million cells)
Experimental: (§1) In vitro metabolic stability was assessed using cryopreserved hepatocytes from male Sprague Dawley rats and a pool of 50 mixed gender humans (BioIVT, Baltimore, MD). The incubation mixtures were prepared by mixing 250 μL of pre-warmed KHB (Krebs-Henseleit buffer) containing 2×10^6 cell/mL of hepatocytes with 250 μL of pre-warmed KHB buffer containing 2 μM of test compounds in a 48-well plate, giving a final concentration of 1 μM test compound (0.1% DMSO) and 1×10^6 cell/mL of hepatocytes. The reaction mixture was incubated at 37 degrees C. A 50 μL aliquot of incubation mixture was taken at time points (0, 15, 30, 60, 120 and 240 minutes) and transferred into a 96-well plate containing 300 μL ice-cold acetonitrile (containing 30 ng/mL of labetalol and 10 ng/mL of Naltrexone-d3 as internal standards) and immediately placed in ice to terminate the reaction. Samples were centrifuged, and supernatants were transferred into 96-well plates for liquid chromatography with tandem mass spectrometry (LC-MS/MS) analysis to monitor the depletion of the test compound.
(§2) Data was calculated as percent remaining by assuming zero-minute time point peak area ratio (analyte/IS) as 100% and dividing remaining time point peak area ratios by zero-minute time point peak area ratio. Data were fitted to a first-order decay model to determine half-life. From a plot of log (ln) peak area against time, the slope of the line was determined. Subsequently, half-life (T1/2) and intrinsic clearance (CLint) were calculated using the equations below: Elimination rate constant (k)=(−slope) Half-life (T1/2) min=0.693/k Intrinsic Clearance (CLint) (mL/min/million cells)=(V×0.693)/T1/2 V=incubation volume mL/number of cells The in vitro T1/2 was converted to in vitro intrinsic clearance (CLint,hep) in units of mL/min/kg using the formula shown below:
(§3) [formula] The in vitro intrinsic clearance (CLint,hep) was scaled to in vivo hepatic clearance (CL,hep) using the following equation which was adapted from a well-stirred model.
(§4) [formula] where Q is the liver blood flow and fu is the fraction unbound (assumed to be unity in this case). All parameters used in the calculation are shown below (Table 4).
(§5) The extraction ratio (ER) was calculated by dividing the hepatic clearance of a compound to the liver blood flow. The data reported in Table 5 were obtained according to the human hepatocytes stability assay described above.

[2] = test system: human hepatocytes; assay: Hepatocytes stability assay (human hepatocytes); settings: human hepatocytes; scaled hepatic clearance divided by liver blood flow (well-stirred model, fu assumed unity)
Experimental: as §1, §2, §3, §4, §5

[3] = test system: MDR1; assay: MDCK-MDR1 permeability assay; settings: dog, MDCK-MDR1, MDCK-MDR1 cells; for efflux ratio at 2 h, 3 μM: Papp B→A divided by Papp A→B, read-out: Efflux ratio (ER); for Papp A→B at 2 h, 3 μM: test compound 3 μM, 2 hours at 37 degrees C, apical to basolateral
Experimental: The bidirectional permeability (Apical to Basal and Basal to Apical directions) of test compounds in MDCK-MIDR1 cells were evaluated using MDCK-MIDR1 cells seeded in Solvo PreadyPort™ MDCK 96-well plate. Once the plate was received from ReadyCell (Barcelona, Spain), it was treated as per PreadyPort™ user's manual.
For the Apical to Basolateral (A→B) permeability, 80 μL of test compound (3 μM) co-dosed with LY (Lucifer Yellow) (100 μM) in HBSS (Hank's Balanced Salt Solution) assay buffer was added to the donor side (A) while 250 μL of HBSS buffer was added to the receiver side (B). For the Basolateral to Apical (B→A) permeability, 255 μL of test compound (3 μM) in HBSS assay buffer was added to the donor side (B) while 75 μL of HBSS buffer containing LY (100 μM) was added to the receiver side (A).
The plate was placed in an incubator set at 37 degrees C. After 10 minutes of pre-warming, 5 μL aliquot was taken from donor compartment and set aside as the dosing solution. The MDCK-MDR1 incubation plate was placed back into the incubator for 2 hours of incubation at 37 degrees C. After 2 hours of incubation, 25 μL and 5 μL aliquots were removed from the receiver and donor sides, respectively. To the 5 μL aliquots taken from the donor sides (before and after a 2-hour incubation) were diluted with 20 μL of the HBSS buffer. All samples were mixed with 150 μL with acetonitrile containing internal standard (IS) and 200 μL water, and analyzed by LC-MS/MS.
The apparent permeability (Papp) was calculated using the following formula: Papp=dQ/dt×1/A×C0 where: • dQ/dt: amount of translocated material over incubation time (nmol/s) • A: area of insert (0.14 cm^2 for PreadyPort™ MDR1-96) • C0: initial concentration of product applied in apical (A→B) or basal (B→A) compartment (nmol/mL)
The efflux ratio (ER) was measured by dividing the Papp (basolateral to apical direction) by Papp (apical to basolateral direction). It is a general measure of the involvement of active processes. An ER>2 is considered positive for active transport.
Percent recovery was measured using the following equation:
[formula] where: • VR: Volume of the receiver compartment (mL) • VD: Volume of the donor compartment (mL) • CN: Concentration of dosing solution (μM) collected after 10 minutes of incubation • CR^final: Receiver concentration at the end of the incubation (μM) • CD^final: Donor concentration at the end of the incubation (μM)
The data reported in Table 3 were obtained according to the MDCK-MDR1 permeability assay described above.

Compound | hepatocyte CLint at 1 μM [1] [µL/min/1e6 cells] | Extraction Ratio (ER) [2] | efflux ratio at 2 h, 3 μM [3] | Papp A→B at 2 h, 3 μM [3] [×10⁻⁶ cm/s]
Cc1ccc2c(c1C)[C@H]1CC[C@H](CC1)OCC1[C@@H](NS(=O)(=O)C3CC3)CCCN1C(=O)CO2 (stereo in doubt) [Compound 77] | 12 | 0.63 | 27 | 0.79
Cc1ccc2c(c1C)[C@H]1CC[C@H](CC1)OCC1[C@@H](NS(C)(=O)=O)CCCN1C(=O)CO2 (stereo in doubt) [Compound 78] | 7.2 | 0.52 | 74 | 0.41
Cc1cccc2c1[C@H]1CC[C@H](CC1)OCC1[C@@H](NS(=O)(=O)C(C)C)CCN1C(=O)CO2 (stereo in doubt) [Compound 79] | 46 | 0.87 | 3.8 | 5.7
O=C1COc2ccccc2[C@H]2CC[C@H](CC2)OCC2[C@@H](NS(=O)(=O)C3COC3)CCCN12 (stereo in doubt) [Compound 80] | 11 | 0.63 | 51 | 0.79
Cc1ncnc2c1[C@H]1CC[C@H](CC1)OCC1[C@@H](NS(C)(=O)=O)CCN1C(=O)CO2 (stereo in doubt) [Compound 82] | < 1.9 | <0.22 | 59 | 0.58
Cc1ncnc2c1[C@H]1CC[C@H](CC1)OCC1[C@@H](NS(=O)(=O)C3CC3)CCN1C(=O)CO2 (stereo in doubt) [Compound 83] | 2.6 | 0.28 | 46 | 0.85
Cc1ncnc2c1[C@H]1CC[C@H](CC1)OCC1[C@@H](NS(=O)(=O)C(C)C)CCN1C(=O)CO2 (stereo in doubt) [Compound 86] | 4.1 | 0.38 | 24 | 1.9
Cc1ccnc2c1[C@H]1CC[C@H](CC1)OCC1[C@@H](NS(=O)(=O)C3COC3)CCCN1C(=O)CO2 (stereo in doubt) [Compound 88] | 6.7 | 0.50 | 25 | 0.84
